Patent publication US20200093128A1, “ACIDULATED SURFACTANT COMPOSITIONS AND METHODS OF REDUCING MICROBIAL LOAD” (The United States of America, as represented by the …, priority 2018, published 2020)
Where two headings read alike, the source gives them in different places. Marks after values point to notes of the source that are not given here.

Columns and labels:
E. coli = conditions: Cl 100 PPM, 10.0 min, cited from earlier work
[1] = tested on: Salmonella and E. coli O157:H7; conditions: strawberries, 6.44 pH-adjusted free chlorine, 198 ppm; cited from earlier work
EHEC & Salmonella = conditions: Lettuce, Cl 200 PPM, cited from earlier work
[2] = tested on: S. enterica, L. monocytogenes or E. coli O157:H7; test: BS EN 1276 chlorine test, summary over the three pathogens; format: cell-based; conditions: 48 ppm chlorine, 5 min, 3% bovine albumin (dirty conditions)
[3] = tested on: Salmonella and E. coli O157:H7; conditions: tomato stem scars, 200 ppm free chlorine, pH-unadjusted; cited from earlier work
Total Coliforms [4] = conditions: watercress, 200 ppm NaOCl, pH-unadjusted; cited from earlier work
[5] = tested on: Salmonella, E. coli, Listeria monocytogenes, coliforms or aerobic mesophilic bacteria; test: Previous studies: produce treated with NaClO, summary of Table 1; format: cell-based; conditions: Table 1 studies, average 154.2 ppm free chlorine, average treatment time 5.42 min
L. monocytogenes [6] = format: cell-based, Listeria monocytogenes; conditions: dip-inoculated grape tomatoes, 100 ml wash, 2 min
Source text: (§1) This example illustrates an embodiment of the effectiveness of the inventive composition. […]. The four most acid-resistant strains out of the fourteen were selected for use in this study. These four strains consisted of cattle isolate #'s 199, 758, 851, and 859, provided by Dr. T. G. Nagaraja (Distinguished Microbiology Professor, Kansas State University, Department of Veterinary Medicine). Five outbreak strains of Listeria monocytogenes were used, including L499, L502, L008, L2624, and L2625, provided by Dr. Bassam Annous (USDA-ARS-ERRC). Four serovars of S. enterica (Salmonella Newport H1275 (ERRC culture collection)), St. Paul 02-517-1 (cantaloupe outbreak), Stanley H0558 (CDC stool sample, 1995 sprout outbreak), and Montevideo G4639 (1993 tomato outbreak)) were also utilized. All isolates (except for the L. monocytogenes outbreak strains) were selected for spontaneous mutants resistant to 100 ppm of the antibiotic compound nalidixic acid (L. monocytogenes is naturally resistant to 100 ppm nalidixic acid and so was plated on media containing 100 ppm nalidixic acid without need for selection of spontaneous mutants). Isolates were individually incubated for 24 h at 37° C. in 10 mL of Tryptic Soy Broth (Difco, Sparks, Md.)+100 ppm nalidixic acid (TSBN), as an antimicrobial marker and to preclude potential contamination on plates. […]

Listeria innocua = conditions: Lettuce, Cl 10 PPM, 5.0 min, Francis and O'Beime (2002); cited from earlier work
E. coli O157:H7 [7] = format: cell-based; conditions: dip-inoculated grape tomatoes, 100 ml wash, 2 min
Source text: as §1

L. monocytogenes [8] = conditions: cited from earlier work
EHEC = conditions: cited from earlier work
Salmonella [9] = format: cell-based, S. enterica; conditions: dip-inoculated grape tomatoes, 100 ml wash, 2 min
Source text: as §1

Aerobic Bacteria = conditions: cited from earlier work
pH of wash solution = format: physicochemical; conditions: wash solutions of the grape tomato test (Table 4)
Salmonella [10] = conditions: Parsley, Cl 100 PPM, 5 min, Lapidot et al. (2006); cited from earlier work
Salmonella [11] = test: BS EN 1276 test for sanitizer efficacy of NaClO; format: cell-based, S. enterica; conditions: 0.03% bovine serum, 5 min, 22±1° C.
Source text: as §1, with “plates. Suspensions were centrifuged at 1980×g for 10 min, and resuspended in 5 ml of sterile deionized water and vortexed vigorously for 3 minutes. All strains of each individual species of bacteria were composited in a single sterile 500 mL beaker for inoculation of grape tomatoes.” for “plates.”

Listeria Monocytogenes = test: BS EN 1276 test for sanitizer efficacy of NaClO; format: cell-based; conditions: 0.03% bovine serum, 5 min, 22±1° C.
Source text: (§2) This example illustrates an embodiment of the effectiveness of the inventive composition. […]. The four most acid-resistant strains out of the fourteen were selected for use in this study. These four strains consisted of cattle isolate #'s 199, 758, 851, and 859, provided by Dr. T. G. Nagaraja (Distinguished Microbiology Professor, Kansas State University, Department of Veterinary Medicine). Five outbreak strains of Listeria monocytogenes were used, including L499, L502, L008, L2624, and L2625, provided by Dr. Bassam Annous (USDA-ARS-ERRC). Four serovars of S. enterica (Salmonella Newport H1275 (ERRC culture collection)), St. Paul 02-517-1 (cantaloupe outbreak), Stanley H0558 (CDC stool sample, 1995 sprout outbreak), and Montevideo G4639 (1993 tomato outbreak)) were also utilized. All isolates (except for the L. monocytogenes outbreak strains) were selected for spontaneous mutants resistant to 100 ppm of the antibiotic compound nalidixic acid (L. monocytogenes is naturally resistant to 100 ppm nalidixic acid and so was plated on media containing 100 ppm nalidixic acid without need for selection of spontaneous mutants). Isolates were individually incubated for 24 h at 37° C. in 10 mL of Tryptic Soy Broth (Difco, Sparks, Md.)+100 ppm nalidixic acid (TSBN), as an antimicrobial marker and to preclude potential contamination on plates. Suspensions were centrifuged at 1980×g for 10 min, and resuspended in 5 ml of sterile deionized water and vortexed vigorously for 3 minutes. All strains of each individual species of bacteria were composited in a single sterile 500 mL beaker for inoculation of grape tomatoes.
(§3) L. monocytogenes was plated on Thermo Scientific™ Brilliance™ Listeria Agar (BLA, ThermoFisher Scientific, Fairlawn, N.J.)+100 ppm nalidixic acid without the addition of BLA antimicrobial supplements+0.1% sodium pyruvate (to aid in recovering injured cells) (see e.g., Gurtler, J. B. & L. R. Beuchat, (2005) Appl. Environ. Microbiol. 71:7661-7669; Gurtler, J. B. & Kornacki, J. L. (2009) Lett. Appl. Microbiol. 49:503-509; Wesche, A. M., et al. (2009) J. Food Prot. 72, 1121-1138). Salmonella was plated on tryptic soy agar (Difco)+100 mg/L nalidixic acid+0.1% sodium pyruvate+80 mg/L X-α-Gal (5-Bromo-4-Chloro-3-indolyl-α-D-galactopyranoside) (Research Products Intl., Mt. Prospect, Ill.)+100 mg/L Isopropyl-β-D-thiogalactopyranoside (IPTG, Fisher Scientific). X-α-Gal induces a green color change by salmonellae colonies. E. coli O157:H7 was plated tryptic soy agar (Difco)+100 mg/L nalidixic acid+0.1% sodium pyruvate+175 mg/L red/salmon-Gal (6-Chloro-3-indolyl-β-D-galactopyranoside)+100 mg/L IPTG. Red/salmon-Gal induces a pink color change by E. coli colonies.
(§4) BS EN 1276 Test for Sanitizer Efficacy of Sodium Hypochlorite (NaClO). The British Standard, European Normalization Method 1276 for sanitizers was chosen to evaluate the efficacy low level NaClO. The level of free chlorine ranged from 10 to 48 ppm free chlorine, as tested with the LaMotte Model CL-BR 3624 titration kit (Chestertown, Md.). The BS EN 1276 method as well as the French AFNOR NFT 72170 method has been traditionally used to evaluate sanitizer effectiveness (see e.g., Jacquet, C., and Reynaud, A. (1994) Int. J. Food Microbiol. 22:79-83; Taylor, J. H., et al. (1999) Int. J. Appl. Microbiol. 87:718-725). The BS EN 1276 method involves adding 0.03% bovine albumin to represent clean conditions and 0.3% albumin for dirty conditions. Briefly, 1 ml of either 0.03% or 0.3% bovine serum was added to a sterile 15 ml test tube, followed by 1 ml of the ca. 9 log CFU/ml test solution of each bacterial composite. The suspension was permitted to sit for 2 min and then 8 ml of an appropriately diluted NaClO solution was added to the 2 ml of bacteria-bovine solution suspension where concentrations of sanitizer solution were adjusted to mathematically account for the 2:8 dilution with the pathogen suspension at 10 ppm, 16 ppm, and 48 ppm. All tests were conducted at 22±1° C. […]

E. coli O157:H7 [12] = test: BS EN 1276 test for sanitizer efficacy of NaClO; format: cell-based; conditions: 0.03% bovine serum, 5 min, 22±1° C.
Source text: as §2, §3, §4

Total Coliforms [13] = conditions: Lettuce, Cl 200 PPM, 10 min, Nascimento et al. (2003); cited from earlier work

For OCl [NaClO, sodium hypochlorite], the Inactivation (E. coli; Cabbage/Parsley, Seymot et al. (2002)) is listed as “ca 1.45 Log CFU”, the Inactivation (E. coli; Lettuce, Seymor et al. 2002) is listed as 0.72 Log CFU and the “inactivated log CFU” value [1] is listed as 1.86 log CFU. For the same molecule, the Inactivation (EHEC & Salmonella; 1.0 min, Koseki et al. (2003)) was “ca. 1.0 Log CFU”, the Inactivation (EHEC & Salmonella; 10.0 min, Kondo et al. (2006)) was 1.2 Log CFU and the inactivated log [2] was “less than 0.76 log”. For the same molecule, the inactivation of pathogens [3] was 1.53 log, the inactivation of pathogens (Total Coliforms [4]) was 1.1 log and the “average log reduction in previous studies” value [5] was 1.24 log CFU. For the same molecule, the “reduction, L. monocytogenes” value (L. monocytogenes [6]) was 3.16 ± 0.61 B log CFU/g, the Inactivation (Listeria innocua) was 1.5 Log CFU and the “reduction, E. coli O157:H7” value (E. coli O157:H7 [7]) was 2.92 ± 0.38 BC log CFU/g. For the same molecule, the Inactivation (L. monocytogenes [8]; Lettuce (4° C.), Cl 200 PPM, 10.0 min, Zhang & Farber (1996)) was 1.3 Log CFU, the Inactivation (L. monocytogenes [8]; Lettuce, Cl 20 PPM, 0.5 min, Li et al. (2002)) was 1.2 Log CFU and the Inactivation (L. monocytogenes [8]; Lettuce, Cl 100 PPM, 1.0 min, Hellstrom et al. (2006)) was 0.7 Log CFU. The Inactivation (L. monocytogenes [8]; Lettuce, Cl 100 PPM, 5.0 min, Akbas and Oimez (2007)) was 1.7 Log CFU, the Inactivation (EHEC; Lettuce & Spinach, Cl 600 PPM, 3.0 min, Niemera, 2007) was 0.5 Log CFU and the Inactivation (EHEC; Lettuce, Cl 20 PPM, 1.0 min, Li et al. (2001)) was 1.1 Log CFU. For the same molecule, the “reduction, Salmonella” value (Salmonella [9]) was 2.60 ± 0.25 B log CFU/g, the Inactivation (Aerobic Bacteria; Diced Tomato, Cl 200 PPM, 0.5 min, Simmons et al. (2006)) was 0.00 Log CFU and the Inactivation (Aerobic Bacteria; Lettuce, Cl 75 PPM, 5 min, Lu et al. (2007)) was 2.0 Log CFU. For the same molecule, the Inactivation (Aerobic Bacteria; Lettuce, Cl 150 PPM, 10 min, Koseki et al. (2001)) was 2.0 Log CFU, the Inactivation (Aerobic Bacteria; Lettuce, Cl 200 PPM, 0.5 min, Simmons et al. (2006)) was 1.30 Log CFU and the Inactivation (Aerobic Bacteria; Lettuce, Cl 200 PPM, 10.0 min, Kondo et al. (2006)) was 0.9 Log CFU. The “pH Values” (pH of wash solution) was 9.88, the Inactivation (Salmonella [10]) was 1.7 Log CFU and the “log CFU/mL reduction” value (Salmonella [11]; 10 ppm free chlorine) was 1.20 B ± 0.10 log CFU/mL. The “log CFU/mL reduction” value (Salmonella [11]; 16 ppm free chlorine) was 2.72 A ± 0.53 log CFU/mL, the “log CFU/mL reduction” value (Salmonella [11]; 48 ppm free chlorine) was 0.25 ± 0.25 log CFU/mL and the “log CFU/mL reduction” value (Listeria Monocytogenes; 10 ppm free chlorine) was 1.22 B ± 0.19 log CFU/mL. For the same molecule, the “log CFU/mL reduction” value (Listeria Monocytogenes; 16 ppm free chlorine) was 2.77 A ± 0.36 log CFU/mL, the “log CFU/mL reduction” value (Listeria Monocytogenes; 48 ppm free chlorine) was 0.53 ± 0.21 log CFU/mL and the “log CFU/mL reduction” value (E. coli O157:H7 [12]; 10 ppm free chlorine) was 0.64 B^a ± 0.32^b log CFU/mL. The “log CFU/mL reduction” value (E. coli O157:H7 [12]; 16 ppm free chlorine) was 1.79 A ± 0.21 log CFU/mL, the “log CFU/mL reduction” value (E. coli O157:H7 [12]; 48 ppm free chlorine) was 0.33 ± 0.47^c log CFU/mL and the Inactivation (Total Coliforms [13]) was under 2.0 Log CFU.
